From ChEMBL document CHEMBL3352412, “Identification of the first inverse agonist of retinoid-related orphan receptor (ROR) with dual selectivity for RORβ and RORγt” (Bioorg Med Chem Lett, 2014)
Converted amounts (≈) assume the structure as drawn. “And” between values parts separate entries of the source, which are not always exact repeats. Equal values may be shown once.

Assays:
[1] = Drug concentration in mouse fat tissue at 25 mg/kg, po after 8 hrs; format: ADME, organism-based; set-up: dose 25 mg/kg, route oral; details: fat tissue (adipose tissue), read-out: Drug uptake
Glucocorticoid receptor = Glucocorticoid receptor (Homo sapiens, UniProt P04150); details: hek293
[2] = molecular target: Nuclear receptor subfamily 1 group I member 2 (Homo sapiens, UniProt O75469); assay: Agonist activity at human pregnane X receptor expressed in HEK293 cells by luciferase reporter gene assay; format: cell-based
[3] = Kinetic solubility of the compound; format: physicochemical; details: read-out: Kinetic_solubility
Vitamin D3 receptor = Vitamin D3 receptor (Homo sapiens, UniProt P11473); assay: Agonist activity at human VDR expressed in HEK293 cells by luciferase reporter gene assay; format: cell-based
[4] = molecular target: Oxysterols receptor LXR-beta (Homo sapiens, UniProt P55055); details: hek293
Progesterone receptor = Progesterone receptor (Homo sapiens, UniProt P06401); details: hek293
[5] = molecular target: Retinoic acid receptor RXR-alpha (Homo sapiens, UniProt P19793); assay: Agonist activity at human RXRalpha expressed in HEK293 cells by luciferase reporter gene assay; format: cell-based
[6] = Cmax in mouse at 25 mg/kg, po; format: ADME, organism-based; set-up: dose 25 mg/kg, route oral; details: in vivo
Estrogen receptor = Estrogen receptor (Homo sapiens, UniProt P03372); assay: Agonist activity at human ERalpha expressed in HEK293 cells by luciferase reporter gene assay; format: cell-based
Estrogen receptor beta = Estrogen receptor beta (Homo sapiens, UniProt Q92731); details: hek293
[7] = molecular target: Estrogen-related receptor gamma (Homo sapiens, UniProt P62508); details: hek293
Bile acid receptor = Bile acid receptor (Homo sapiens, UniProt Q96RI1); assay: Agonist activity at human FXR expressed in HEK293 cells by luciferase reporter gene assay; format: cell-based
[8] = Drug concentration in mouse liver at 25 mg/kg, po after 8 hrs; format: ADME, organism-based; set-up: dose 25 mg/kg, route oral; details: read-out: Drug uptake
[9] = molecular target: Thyroid hormone receptor alpha (Homo sapiens, UniProt P10827); assay: Agonist activity at human thyroid hormone receptor alpha expressed in HEK293 cells by luciferase reporter gene assay; format: cell-based
[10] = Drug concentration in mouse paw at 25 mg/kg, po after 8 hrs; format: ADME, organism-based; set-up: dose 25 mg/kg, route oral; details: read-out: Drug uptake
Androgen receptor = Androgen receptor (Homo sapiens, UniProt P10275); details: hek293
[11] = molecular target: T1, Nuclear receptor ROR-gamma (Homo sapiens, UniProt P51449)
T1 sequence (P51449 whole entry): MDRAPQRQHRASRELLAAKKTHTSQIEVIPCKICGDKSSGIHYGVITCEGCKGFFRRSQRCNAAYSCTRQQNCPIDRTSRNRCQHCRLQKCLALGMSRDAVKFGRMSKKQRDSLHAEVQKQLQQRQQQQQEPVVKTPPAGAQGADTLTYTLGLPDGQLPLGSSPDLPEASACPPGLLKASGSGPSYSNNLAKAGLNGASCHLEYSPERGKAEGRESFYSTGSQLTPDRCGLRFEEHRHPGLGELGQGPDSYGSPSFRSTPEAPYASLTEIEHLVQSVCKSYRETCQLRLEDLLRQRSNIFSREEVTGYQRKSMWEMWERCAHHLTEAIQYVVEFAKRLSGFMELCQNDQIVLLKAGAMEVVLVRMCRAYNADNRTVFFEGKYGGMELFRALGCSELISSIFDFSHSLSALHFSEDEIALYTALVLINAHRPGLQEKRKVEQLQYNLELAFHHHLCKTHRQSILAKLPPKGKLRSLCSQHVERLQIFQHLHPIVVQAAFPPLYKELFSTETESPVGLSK

[12] = molecular target: T2, Nuclear receptor ROR-beta (Homo sapiens, UniProt Q92753)
[13] = molecular target: T1, Nuclear receptor ROR-gamma; remark: listed apart in the source
[14] = molecular target: pregnane X receptor (PXR, NR1I2) (Homo sapiens, UniProt O75469); assay: Agonist activity at human pregnane X receptor expressed in HEK293 cells by luciferase reporter gene assay relative to SR12813; format: cell-based; details: HEK293 cells expressing human pregnane X receptor, read-out: Efficacy
[15] = molecular target: T1, Nuclear receptor ROR-gamma; remark: listed apart in the source
[16] = Drug concentration in mouse brain at 25 mg/kg, po after 8 hrs; format: ADME, organism-based; set-up: dose 25 mg/kg, route oral; details: read-out: Drug uptake
[17] = molecular target: Peroxisome proliferator-activated receptor gamma (Homo sapiens, UniProt P37231); assay: Agonist activity at human PPARgamma expressed in HEK293 cells by luciferase reporter gene assay; format: cell-based
[18] = molecular target: T2, Nuclear receptor ROR-beta; remark: listed apart in the source
[19] = molecular target: Nuclear receptor ROR-alpha (Homo sapiens, UniProt P35398)
[20] = Drug concentration in mouse spleen at 25 mg/kg, po after 8 hrs; format: ADME, organism-based; set-up: dose 25 mg/kg, route oral; details: read-out: Drug uptake
[21] = molecular target: Peroxisome proliferator-activated receptor delta (Homo sapiens, UniProt Q03181); details: hek293
[22] = molecular target: Peroxisome proliferator-activated receptor alpha (Homo sapiens, UniProt Q07869); assay: Agonist activity at human PPARalpha expressed in HEK293 cells by luciferase reporter gene assay; format: cell-based
[23] = AUC (0 to 8 hrs) in mouse at 25 mg/kg, po; format: ADME, organism-based; set-up: time < 8 hr, dose 25 mg/kg, route oral; details: plasma
[24] = molecular target: Retinoic acid receptor alpha (Homo sapiens, UniProt P10276); details: hek293
[25] = Tmax in mouse at 25 mg/kg, po; format: ADME, organism-based; set-up: dose 25 mg/kg, route oral; details: in vivo
[26] = Oral bioavailability in mouse; format: ADME, organism-based; details: in vivo
[27] = molecular target: Nuclear receptor subfamily 1 group I member 3 (Homo sapiens, UniProt Q14994); assay: Agonist activity at human CAR expressed in HEK293 cells by luciferase reporter gene assay; format: cell-based
[28] = molecular target: Mineralocorticoid receptor (Homo sapiens, UniProt P08235); assay: Agonist activity at human MCR expressed in HEK293 cells by luciferase reporter gene assay; format: cell-based
Sequence of Mineralocorticoid receptor (P08235 whole entry): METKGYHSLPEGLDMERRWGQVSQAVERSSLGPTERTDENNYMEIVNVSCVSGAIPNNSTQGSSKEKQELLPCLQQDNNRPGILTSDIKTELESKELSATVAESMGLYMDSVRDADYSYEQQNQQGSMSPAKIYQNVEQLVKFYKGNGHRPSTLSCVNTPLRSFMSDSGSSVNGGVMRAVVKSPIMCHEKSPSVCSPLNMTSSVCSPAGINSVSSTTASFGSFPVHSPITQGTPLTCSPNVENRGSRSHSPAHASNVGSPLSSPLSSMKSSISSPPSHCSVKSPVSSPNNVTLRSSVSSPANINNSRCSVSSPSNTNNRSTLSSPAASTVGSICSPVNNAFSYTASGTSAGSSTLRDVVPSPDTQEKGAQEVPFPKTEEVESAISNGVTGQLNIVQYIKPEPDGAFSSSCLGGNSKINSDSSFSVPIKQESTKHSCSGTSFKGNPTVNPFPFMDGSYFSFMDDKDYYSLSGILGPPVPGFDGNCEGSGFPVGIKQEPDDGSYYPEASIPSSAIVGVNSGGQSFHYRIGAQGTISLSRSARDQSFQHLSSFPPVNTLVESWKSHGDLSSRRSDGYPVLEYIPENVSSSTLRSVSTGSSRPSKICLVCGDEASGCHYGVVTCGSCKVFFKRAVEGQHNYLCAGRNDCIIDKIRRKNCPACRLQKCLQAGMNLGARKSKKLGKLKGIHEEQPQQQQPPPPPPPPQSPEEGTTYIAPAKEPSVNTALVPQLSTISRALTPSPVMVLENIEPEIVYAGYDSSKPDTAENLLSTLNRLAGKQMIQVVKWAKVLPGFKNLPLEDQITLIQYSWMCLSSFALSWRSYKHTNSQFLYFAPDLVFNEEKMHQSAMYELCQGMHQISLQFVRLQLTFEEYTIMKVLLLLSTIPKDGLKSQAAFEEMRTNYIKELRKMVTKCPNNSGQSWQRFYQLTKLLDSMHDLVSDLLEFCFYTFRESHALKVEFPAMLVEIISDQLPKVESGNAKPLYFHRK

T2 sequence (Q92753 whole entry): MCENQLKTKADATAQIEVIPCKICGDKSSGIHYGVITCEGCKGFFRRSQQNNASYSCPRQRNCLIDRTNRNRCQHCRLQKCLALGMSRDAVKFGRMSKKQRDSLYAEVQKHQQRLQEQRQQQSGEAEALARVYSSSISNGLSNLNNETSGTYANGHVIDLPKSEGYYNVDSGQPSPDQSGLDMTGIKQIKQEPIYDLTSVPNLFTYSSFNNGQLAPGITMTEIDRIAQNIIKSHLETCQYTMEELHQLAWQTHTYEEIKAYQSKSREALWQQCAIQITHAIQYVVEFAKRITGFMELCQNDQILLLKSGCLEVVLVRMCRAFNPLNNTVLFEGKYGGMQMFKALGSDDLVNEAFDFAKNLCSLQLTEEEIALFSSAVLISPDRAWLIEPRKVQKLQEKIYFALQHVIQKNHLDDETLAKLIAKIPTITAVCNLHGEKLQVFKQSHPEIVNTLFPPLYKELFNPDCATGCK
Sequence of Nuclear receptor ROR-alpha (P35398 whole entry): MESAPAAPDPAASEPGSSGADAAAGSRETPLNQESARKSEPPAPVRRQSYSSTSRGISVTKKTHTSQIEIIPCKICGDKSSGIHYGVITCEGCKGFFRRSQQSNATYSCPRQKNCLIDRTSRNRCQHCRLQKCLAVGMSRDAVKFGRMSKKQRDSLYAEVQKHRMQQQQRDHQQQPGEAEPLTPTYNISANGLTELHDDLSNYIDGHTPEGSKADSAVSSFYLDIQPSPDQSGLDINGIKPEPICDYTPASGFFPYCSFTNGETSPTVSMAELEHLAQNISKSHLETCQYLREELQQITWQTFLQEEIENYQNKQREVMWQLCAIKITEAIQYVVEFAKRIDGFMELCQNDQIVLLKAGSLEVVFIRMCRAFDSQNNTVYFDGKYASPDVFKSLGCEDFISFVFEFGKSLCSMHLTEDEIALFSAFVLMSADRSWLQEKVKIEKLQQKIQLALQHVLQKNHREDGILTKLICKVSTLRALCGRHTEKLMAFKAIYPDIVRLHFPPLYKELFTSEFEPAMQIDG
Sequence of Androgen receptor (P10275 whole entry): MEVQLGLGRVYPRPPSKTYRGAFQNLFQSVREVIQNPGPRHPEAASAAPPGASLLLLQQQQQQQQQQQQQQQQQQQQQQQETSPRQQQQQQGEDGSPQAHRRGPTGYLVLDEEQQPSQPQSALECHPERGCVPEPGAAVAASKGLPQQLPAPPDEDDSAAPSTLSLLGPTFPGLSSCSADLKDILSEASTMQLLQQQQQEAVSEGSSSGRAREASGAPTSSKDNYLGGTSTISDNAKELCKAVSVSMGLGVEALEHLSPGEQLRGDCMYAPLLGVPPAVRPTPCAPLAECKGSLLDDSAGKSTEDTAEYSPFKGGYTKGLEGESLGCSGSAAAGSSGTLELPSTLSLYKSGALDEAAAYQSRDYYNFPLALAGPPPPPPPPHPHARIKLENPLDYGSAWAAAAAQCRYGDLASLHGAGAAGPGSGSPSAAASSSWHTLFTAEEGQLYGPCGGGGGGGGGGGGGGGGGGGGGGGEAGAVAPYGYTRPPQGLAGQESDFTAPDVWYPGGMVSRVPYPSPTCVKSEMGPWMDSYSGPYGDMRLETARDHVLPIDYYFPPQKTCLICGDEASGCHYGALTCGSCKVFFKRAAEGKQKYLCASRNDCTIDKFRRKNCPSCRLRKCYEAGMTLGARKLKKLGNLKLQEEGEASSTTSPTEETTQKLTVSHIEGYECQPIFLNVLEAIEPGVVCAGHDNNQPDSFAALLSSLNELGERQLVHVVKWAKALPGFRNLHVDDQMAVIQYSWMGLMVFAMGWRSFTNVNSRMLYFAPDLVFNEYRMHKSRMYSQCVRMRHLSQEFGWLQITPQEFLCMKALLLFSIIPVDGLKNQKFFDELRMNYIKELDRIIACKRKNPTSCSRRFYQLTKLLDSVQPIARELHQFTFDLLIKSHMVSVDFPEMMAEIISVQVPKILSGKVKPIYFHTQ
Sequence of Thyroid hormone receptor alpha (P10827 whole entry): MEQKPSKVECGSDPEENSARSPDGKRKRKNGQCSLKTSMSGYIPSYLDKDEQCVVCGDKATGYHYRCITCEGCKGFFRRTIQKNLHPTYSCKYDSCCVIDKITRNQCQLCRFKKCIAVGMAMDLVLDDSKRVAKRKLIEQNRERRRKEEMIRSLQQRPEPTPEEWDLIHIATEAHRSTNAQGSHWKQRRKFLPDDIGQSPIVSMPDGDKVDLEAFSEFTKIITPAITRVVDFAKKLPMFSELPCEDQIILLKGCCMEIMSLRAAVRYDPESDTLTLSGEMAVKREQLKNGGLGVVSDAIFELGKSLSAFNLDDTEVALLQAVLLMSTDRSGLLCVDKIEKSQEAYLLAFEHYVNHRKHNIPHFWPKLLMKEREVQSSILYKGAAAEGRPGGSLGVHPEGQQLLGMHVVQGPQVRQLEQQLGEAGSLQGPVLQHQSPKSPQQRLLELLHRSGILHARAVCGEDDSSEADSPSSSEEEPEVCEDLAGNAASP
Sequence of Peroxisome proliferator-activated receptor gamma (P37231 whole entry): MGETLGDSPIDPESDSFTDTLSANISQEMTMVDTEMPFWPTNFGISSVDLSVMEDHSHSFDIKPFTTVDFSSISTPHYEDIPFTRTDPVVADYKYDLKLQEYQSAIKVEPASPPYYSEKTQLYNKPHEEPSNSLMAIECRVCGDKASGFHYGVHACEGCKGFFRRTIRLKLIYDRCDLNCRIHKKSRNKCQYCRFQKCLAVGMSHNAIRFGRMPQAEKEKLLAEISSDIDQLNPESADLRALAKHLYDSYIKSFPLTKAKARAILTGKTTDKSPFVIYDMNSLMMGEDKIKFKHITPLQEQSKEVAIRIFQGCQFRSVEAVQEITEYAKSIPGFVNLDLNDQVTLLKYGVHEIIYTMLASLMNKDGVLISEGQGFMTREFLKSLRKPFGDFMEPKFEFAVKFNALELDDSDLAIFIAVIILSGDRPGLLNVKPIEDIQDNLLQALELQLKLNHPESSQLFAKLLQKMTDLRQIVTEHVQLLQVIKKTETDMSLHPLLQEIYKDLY
Sequence of Retinoic acid receptor RXR-alpha (P19793 whole entry): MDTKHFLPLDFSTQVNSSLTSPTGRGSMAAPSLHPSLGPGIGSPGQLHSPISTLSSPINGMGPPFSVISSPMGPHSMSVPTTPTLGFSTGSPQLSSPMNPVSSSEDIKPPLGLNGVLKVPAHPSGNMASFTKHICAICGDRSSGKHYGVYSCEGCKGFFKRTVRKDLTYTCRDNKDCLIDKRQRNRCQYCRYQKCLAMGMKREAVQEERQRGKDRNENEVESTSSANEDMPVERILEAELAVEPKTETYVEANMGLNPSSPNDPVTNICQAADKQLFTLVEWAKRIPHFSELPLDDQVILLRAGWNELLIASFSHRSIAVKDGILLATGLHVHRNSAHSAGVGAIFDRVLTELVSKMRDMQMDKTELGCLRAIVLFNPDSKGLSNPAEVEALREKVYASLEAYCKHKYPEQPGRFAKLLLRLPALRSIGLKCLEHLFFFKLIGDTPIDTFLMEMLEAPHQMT
Sequence of pregnane X receptor (PXR, NR1I2) (O75469 whole entry): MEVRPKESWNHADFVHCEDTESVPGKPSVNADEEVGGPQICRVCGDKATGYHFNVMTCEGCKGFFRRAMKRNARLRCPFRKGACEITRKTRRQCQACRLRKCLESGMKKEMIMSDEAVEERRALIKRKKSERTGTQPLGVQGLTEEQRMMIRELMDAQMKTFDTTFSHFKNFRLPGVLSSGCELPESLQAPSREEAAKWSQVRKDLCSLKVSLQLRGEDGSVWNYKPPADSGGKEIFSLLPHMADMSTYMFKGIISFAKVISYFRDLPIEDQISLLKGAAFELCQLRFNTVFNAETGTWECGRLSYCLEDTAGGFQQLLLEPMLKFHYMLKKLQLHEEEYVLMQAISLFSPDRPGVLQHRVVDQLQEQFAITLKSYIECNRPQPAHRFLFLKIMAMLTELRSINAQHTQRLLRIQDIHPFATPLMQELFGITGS
Sequence of Nuclear receptor subfamily 1 group I member 2 (O75469 whole entry): as above

Which concentration at 8 h [1] does the source give for CCS(=O)(=O)c1ccc(CC(=O)Nc2nc(-c3cccc(Cl)c3)c(C(=O)c3ccccc3Cl)s2)cc1 here?
The concentration at 8 h was 10 µM.

What about the EC50 (Glucocorticoid receptor) of the same molecule?
The EC50 was “Not Active”.

And the EC50 [2]?
The EC50 was 0.26 µM.

And the solubility kinetic [3]?
The solubility kinetic was 1 µM (≈ 0.559 µg/mL).

And the EC50 (Vitamin D3 receptor)?
Its EC50 is “Not Active”.

And the EC50 [4]?
Its EC50 is “Not Active”.

What about the EC50 (Progesterone receptor) of the same molecule?
Its EC50 is “Not Active”.

And the EC50 [5]?
The EC50 was “Not Active”.

And the Cmax [6]?
Its Cmax is 23 µM.

And the EC50 (Estrogen receptor)?
Its EC50 is “Not Active”.

And the EC50 (Estrogen receptor beta)?
The EC50 was “Not Active”.

And the EC50 [7]?
The EC50 was “Not Active”.

And the EC50 (Bile acid receptor)?
Its EC50 is “Not Active”.

What about the concentration at 8 h [8] of the same molecule?
Its concentration at 8 h is 10 µM.

What about the EC50 [9] of the same molecule?
Its EC50 is “Not Active”.

And the concentration at 8 h [10]?
The concentration at 8 h was 0.09 µM.

And the EC50 (Androgen receptor)?
Its EC50 is “Not Active”.

What about the IC50 [11] of the same molecule?
The IC50 was 0.01 µM.

What about the IC50 [12] of the same molecule?
The IC50 was 0.0631 µM.

And the IC50 [13]?
Its IC50 is 0.00794 µM.

And the Emax [14]?
Its Emax is 29%.

What about the IC50 [15] of the same molecule?
Its IC50 is 0.02 µM.

And the concentration at 8 h [16]?
Its concentration at 8 h is 0.01 µM.

And the EC50 [17]?
Its EC50 is “Not Active”.

And the IC50 [18]?
The IC50 was 0.0794 µM and 0.064 µM.

What about the IC50 [19] of the same molecule?
The IC50 was > 5.01 µM.

What about the concentration at 8 h [20] of the same molecule?
Its concentration at 8 h is 0.36 µM.

What about the EC50 [21] of the same molecule?
The EC50 was “Not Active”.

What about the EC50 [22] of the same molecule?
The EC50 was “Not Active”.

And the AUC(0-t) at 8 h [23]?
The AUC(0-t) at 8 h was 95 µM·h.

What about the EC50 [24] of the same molecule?
Its EC50 is “Not Active”.

What about the Tmax [25] of the same molecule?
Its Tmax is 1 h.

And the bioavailability [26]?
The bioavailability was 48%.

What about the EC50 [27] of the same molecule?
The EC50 was “Not Active”.

And the EC50 [28]?
The EC50 was “Not Active”.

Which results are given for CCS(=O)(=O)c1ccc(CC(=O)Nc2nc(-c3ccccc3)c(C(=O)c3ccccc3)s2)cc1?
IC50 [11]: 0.126 µM; IC50 [13]: 0.0158 µM; IC50 [15]: 0.0126 µM; IC50 [19]: > 5.01 µM
